Results taken from ChEMBL document CHEMBL1201862, “PubChem BioAssay data set” (2004).
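Each compound was tested at five concentrations against cells in 96-well plates for 48 hours. GI50 marks 50% less growth.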 Calls of active or inactive are those of the source. No stated cut-off is given here; in the data, active = GI50 up to about 1.1 µM and inactive = higher.

Key:
Experiment in all cases: inhibition of tumour cell growth, NCI panel, 48 h
[1] = tested on: UACC-62
[2] = tested on: CCRF-CEM
[3] = tested on: IGROV-1
[4] = tested on: Malme-3M
[5] = tested on: SK-MEL-2
[6] = tested on: XF498
[7] = tested on: OVCAR-4
[8] = tested on: SK-MEL-5
[9] = tested on: M19-MEL
[10] = tested on: KM-20L2
[11] = tested on: UO-31
[12] = tested on: DMS-273
[13] = tested on: LOX IMVI
[14] = tested on: LXFL 529
[15] = tested on: MOLT-4
[16] = tested on: HL-60
[17] = tested on: OVCAR-8
[18] = tested on: HCT-15
[19] = tested on: UACC-257
[20] = tested on: NCI-H23
[21] = tested on: SNB-78
[22] = tested on: HT-29
[23] = tested on: SNB-75
[24] = tested on: RXF 393
[25] = tested on: SNB-19
[26] = tested on: K562
[27] = tested on: U-251
[28] = tested on: HOP-62
[29] = tested on: TK-10
[30] = tested on: HOP-18
[31] = tested on: SF-295
[32] = tested on: COLO 205
[33] = tested on: SW-620
[34] = tested on: SF-539
[35] = tested on: NCI-H460
[36] = tested on: NCI-H226
[37] = tested on: OVCAR-5
[38] = tested on: OVCAR-3
[39] = tested on: SK-OV-3
[40] = tested on: DMS-114
[41] = tested on: HCC 2998
[42] = tested on: M14
[43] = tested on: SN12C
[44] = tested on: KM12
[45] = tested on: CAKI-1
[46] = tested on: ACHN
[47] = tested on: SK-MEL-28
[48] = tested on: RPMI-8226
[49] = tested on: NCI-H522
[50] = tested on: A498
[51] = tested on: A549
[52] = tested on: SF-268
[53] = tested on: EKVX
[54] = tested on: HOP-92
[55] = tested on: 786-0
[56] = tested on: DLD-1

CN(/N=C/c1ccnc2ccccc12)c1ccc([N+](=O)[O-])cc1[N+](=O)[O-]
GI50 [1]: > 100 µM (inactive) | GI50 [2]: > 100 µM (inactive) | GI50 [3]: > 100 µM (inactive) | GI50 [4]: 61 µM (inactive) | GI50 [5]: 28.6 µM (inactive) | GI50 [6]: > 100 µM (inactive) | GI50 [7]: > 100 µM (inactive) | GI50 [8]: > 100 µM (inactive) | GI50 [9]: > 100 µM (inactive) | GI50 [10]: > 100 µM (inactive) | GI50 [11]: > 100 µM (inactive) | GI50 [12]: > 100 µM (inactive) | GI50 [13]: 81.7 µM (inactive) | GI50 [14]: 42.6 µM (inactive) | GI50 [15]: > 100 µM (inactive) | GI50 [16]: > 100 µM (inactive) | GI50 [17]: > 100 µM (inactive) | GI50 [18]: > 100 µM | GI50 [19]: > 100 µM (inactive) | GI50 [20]: 91.6 µM (inactive) | GI50 [21]: 42.3 µM (inactive) | GI50 [22]: > 100 µM (inactive) | GI50 [23]: 20.7 µM (inactive) | GI50 [24]: 41.8 µM (inactive) | GI50 [25]: 77.4 µM (inactive) | GI50 [26]: > 100 µM (inactive) | GI50 [27]: > 100 µM (inactive) | GI50 [28]: 30.3 µM (inactive) | GI50 [29]: > 100 µM (inactive) | GI50 [30]: > 100 µM (inactive) | GI50 [31]: 37.3 µM (inactive) | GI50 [32]: > 100 µM (inactive) | GI50 [33]: > 100 µM (inactive) | GI50 [34]: 89.5 µM (inactive) | GI50 [35]: > 100 µM (inactive) | GI50 [36]: > 100 µM (inactive) | GI50 [37]: > 100 µM (inactive) | GI50 [38]: 19.7 µM (inactive) | GI50 [39]: 47.5 µM (inactive) | GI50 [40]: > 100 µM (inactive) | GI50 [41]: > 100 µM (inactive) | GI50 [42]: > 100 µM (inactive) | GI50 [43]: > 100 µM (inactive) | GI50 [44]: > 100 µM (inactive) | GI50 [45]: > 100 µM (inactive) | GI50 [46]: > 100 µM (inactive) | GI50 [47]: 87.7 µM (inactive) | GI50 [48]: > 100 µM (inactive) | GI50 [49]: > 100 µM (inactive) | GI50 [50]: > 100 µM (inactive) | GI50 [51]: > 100 µM (inactive) | GI50 [52]: > 100 µM (inactive) | GI50 [53]: > 100 µM (inactive) | GI50 [54]: 46.9 µM (inactive) | GI50 [55]: 30.6 µM (inactive) | GI50 [56]: > 100 µM (inactive)

Cc1noc(C)c1CCCOC1COc2ccccc2OCCOCCOc2ccccc2OC1
GI50 [1]: 27.5 µM (inactive) | GI50 [3]: > 100 µM (inactive) | GI50 [4]: 80.4 µM (inactive) | GI50 [5]: > 100 µM (inactive) | GI50 [6]: > 100 µM (inactive) | GI50 [7]: > 100 µM (inactive) | GI50 [8]: > 100 µM (inactive) | GI50 [9]: > 100 µM (inactive) | GI50 [10]: > 100 µM (inactive) | GI50 [11]: > 100 µM (inactive) | GI50 [12]: > 100 µM (inactive) | GI50 [13]: > 100 µM (inactive) | GI50 [14]: > 100 µM (inactive) | GI50 [16]: > 100 µM (inactive) | GI50 [17]: > 100 µM (inactive) | GI50 [18]: > 100 µM | GI50 [19]: > 100 µM (inactive) | GI50 [20]: > 100 µM (inactive) | GI50 [21]: > 100 µM (inactive) | GI50 [22]: > 100 µM (inactive) | GI50 [23]: 65.8 µM (inactive) | GI50 [24]: > 100 µM (inactive) | GI50 [25]: > 100 µM (inactive) | GI50 [26]: > 100 µM (inactive) | GI50 [27]: > 100 µM (inactive) | GI50 [28]: > 100 µM (inactive) | GI50 [29]: > 100 µM (inactive) | GI50 [30]: > 100 µM (inactive) | GI50 [31]: > 100 µM (inactive) | GI50 [32]: > 100 µM (inactive) | GI50 [33]: > 100 µM (inactive) | GI50 [34]: > 100 µM (inactive) | GI50 [36]: > 100 µM (inactive) | GI50 [37]: > 100 µM (inactive) | GI50 [38]: > 100 µM (inactive) | GI50 [39]: > 100 µM (inactive) | GI50 [40]: > 100 µM (inactive) | GI50 [41]: > 100 µM (inactive) | GI50 [42]: > 100 µM (inactive) | GI50 [43]: > 100 µM (inactive) | GI50 [44]: > 100 µM (inactive) | GI50 [45]: > 100 µM (inactive) | GI50 [46]: > 100 µM (inactive) | GI50 [47]: > 100 µM (inactive) | GI50 [49]: > 100 µM (inactive) | GI50 [50]: > 100 µM (inactive) | GI50 [51]: > 100 µM (inactive) | GI50 [52]: > 100 µM (inactive) | GI50 [53]: > 100 µM (inactive) | GI50 [55]: > 100 µM (inactive) | GI50 [56]: > 100 µM (inactive)
